Measurements taken from ChEMBL document CHEMBL5725543, “Aniline derivative, pharmaceutical composition containing same, and use thereof” (2017).

Biological target: Sphingosine 1-phosphate receptor 1 (Homo sapiens, UniProt P21453)
Test: BCA Protein Assay: Inhibitory activity evaluation was performed by multi-screen (registered trademark) HTS 96-well plate (Millipore) using the cell membrane fraction stably expressing S1P1 obtained by the above operation. 25 μL of assay solution (50 mM Tris, 100 mM sodium chloride, 5 mM magnesium chloride, 1 mM EDTA, 1 mM DTT (dithiothreitol), 10 μM GDP (guanosine diphosphate) and 0.5% BSA (bovine serum albumin), pH 7.4), 25 μL of test compounds solution diluted by assay solution and 25 μL of the membrane fraction (0.2 μg protein/μL) were added to each well, and the mixture was gently shaken at room temperature: for 30 minutes. Then, 25 μL of 35S-GTP, and 25 μL of 50 nM S1P1 receptor selective agonist (1-[4-(4-phenyl-5-trifluoromethylthiophen-2-ylmethoxy)benzyl]azetidine-3-carboxylic acid, ¿J. Med. Chem.¿, 2004, vol. 47, pp. 6662-6665, compound 18) were added to each well, respectively, and it was reacted at room temperature for 60 minutes. After the reaction, a reaction solution of each well was suction-filtered. After suction filtration, ice-colded wash solution (50 mM Tris, 100 mM sodium chloride, […] and 1 mM EDTA, pH 7.4) was added to each well, and moreover filters were washed by suction filtration. This wash procedure was performed three times. A bottom of the plate containing the filters was dried at 60° C. […]

Chain of Sphingosine 1-phosphate receptor 1 (P21453 whole entry): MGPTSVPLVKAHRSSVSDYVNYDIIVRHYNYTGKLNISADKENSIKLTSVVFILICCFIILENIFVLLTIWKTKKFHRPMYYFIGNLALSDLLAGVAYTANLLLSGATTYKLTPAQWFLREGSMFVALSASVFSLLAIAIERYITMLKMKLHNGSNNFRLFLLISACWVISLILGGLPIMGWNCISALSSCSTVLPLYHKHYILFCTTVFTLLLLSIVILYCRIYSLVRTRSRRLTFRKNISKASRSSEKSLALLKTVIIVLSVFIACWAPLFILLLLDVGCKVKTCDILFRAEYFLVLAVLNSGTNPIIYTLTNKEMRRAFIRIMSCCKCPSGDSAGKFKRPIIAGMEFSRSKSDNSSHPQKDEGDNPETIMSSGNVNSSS

IC50: 11.2 nM
SMILES: CCN(c1ccc(Cl)c(C)c1)C(CO)c1cccc(CN2CC(C(=O)O)C2)c1 (stereo unspecified)
